Source: patent US10800791B2, “Triazole ACC inhibitors and uses thereof” (Gilead Apollo, LLC, priority 2015, dated 2020)
pIC50: −log10 of the molar value. In brackets after ≈: the same amount, converted by molar mass. Like-named read-outs stand apart in the source and are kept apart here.

How the values were obtained:
[1] = tested on: Fusarium moniliforme (Fm); experiment: Growth inhibition assay of fungal pathogens, Fm; assay type: cell-based; conditions: Fusarium verticillioides, 48 h, Fusarium moniliforme; growth inhibition at 48 hours vs 2% DMSO control; read-out: Concentration at 90% Inhibition Fm
Procedure: (§1) Compounds of the present invention were evaluated in a growth inhibition assay to determine the ability to control the growth of fungal pathogens, such as Botrtyis cinerea (Bc), Collectotrichum graminicola (Cg), Diplodia maydis (Dm), Fusarium moniliforme (Fm), Fusarium virguliforme (Fv), Phytophthora capsici (Pc), Rhizoctonia solani (Rs), and Septoria tritici (St).
(§2) Compounds to be tested were dissolved in DMSO at 2.5 mg/ml to produce compound stock solutions (“stocks”). Stocks were diluted with DMSO by a five-fold dilution in a 96-well stock plate, and two sets of final concentrations of 50, 10, and 2 ppm or 2, 0.4, and 0.08 ppm were obtained in vitro. A set of positive controls was also prepared, with various concentrations of Soraphen (2, 0.4, and 0.08 ppm), Metalaxyl (1.1, 0.22, and 0.04 ppm), and Metconazole (2, 0.4, and 0.08 ppm or 0.2, 0.04, and 0.008 ppm) after the five-fold dilutions. Negative controls on each plate included 2% DMSO, water, and a blank (media+2% DMSO).
(§3) Fungal spores were isolated from previously sub-cultured plates of Botrtyis cinerea (Bc), Collectotrichum graminicola (Cg), Diplodia maydis (Dm), Fusarium moniliforme (Fm), Fusarium virguliforme (Fv), Phytophthora capsici (Pc), and Septoria tritici (St). The isolated spores were diluted to individual concentrations with a 17% V8 liquid media. For Rhizoctonia solani (Rs) and Pythium irregulare, 1.5 mm mycelial plugs were used in place of spores and/4 Potato Dextrose Broth (PDB) was used for dilution. The spore concentrations and plug sizes were based on growth curves generated at 48 hours for each pathogen.
(§4) In a second 96-well plate, the spores or mycelial plugs, media, diluted compound solutions, and controls were combined. Once the compound was added, a true final concentration of compound in each well was measured by an OD600 reading, which adjusted for any compound precipitation that might have occurred in the well. Plate readings were repeated at both 24 and 48 hours. The blank negative control was used as a background subtraction. Additional visual ratings were performed at both 24 and 48 hours for checking on precipitation and confirming efficacy. Visual and OD600 ratings of the compounds at 48 hours were compared to the 2% DMSO negative control, and the percent of pathogen growth inhibition was determined based on those values.

[2] = tested on: Diplodia maydis (Dm); experiment: Growth inhibition assay of fungal pathogens, Dm; assay type: cell-based; conditions: Stenocarpella maydis, 48 h, Diplodia maydis; growth inhibition at 48 hours vs 2% DMSO control; read-out: Concentration at 90% Inhibition Dm
Procedure: as §1, §2, §3, §4

[3] = tested on: Collectotrichum graminicola (Cg); experiment: Growth inhibition assay of fungal pathogens, Cg; assay type: cell-based; conditions: 48 h, Collectotrichum graminicola; growth inhibition at 48 hours vs 2% DMSO control; read-out: Concentration at 90% Inhibition Cg
Procedure: as §1, §2, §3, §4

[4] = tested on: C. albicans; experiment: Antifungal Activity Assay (broth microtiter MIC), C. albicans; assay type: cell-based, Candida albicans; conditions: Candida albicans, ATCC90028, 48 h, ATCC 90028, 3 replicates, MIC recorded at 48 h, read-out: MIC, C. albicans ATCC 90028
In short: (§5)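 Endpoint: lowest concentration visibly inhibiting growth relative to control after 48 h. Inoculum of 2.5×10^3 CFU/mL final in RPMI 1640+MOPS, prepared from overnight 35° C agar cultures; test compounds diluted in water to 128 μg/mL before plating.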

[5] = tested on: Septoria tritici (St); experiment: Growth inhibition assay of fungal pathogens, St; assay type: cell-based; conditions: Zymoseptoria tritici, 48 h, Septoria tritici; growth inhibition at 48 hours vs 2% DMSO control; read-out: Concentration at 90% Inhibition St
Procedure: as §1, §2, §3, §4

[6] = tested on: C. parapsilosis; experiment: Antifungal Activity Assay (broth microtiter MIC), C. parapsilosis; assay type: cell-based, Candida parapsilosis; conditions: Lodderomyces parapsilosis, ATCC22019, 48 h, ATCC 22019, 3 replicates, MIC recorded at 48 h, read-out: MIC, C. parapsilosis ATCC 22019
In short: as §5

[7] = tested on: C. krusei; experiment: Antifungal Activity Assay (broth microtiter MIC), C. krusei; assay type: cell-based, Candida krusei; conditions: Pichia kudriavzevii, ATCC6258, 48 h, ATCC 6258, 3 replicates, MIC recorded at 48 h, read-out: MIC, C. krusei ATCC 6258
In short: as §5

[8] = tested on: Botrtyis cinerea (Bc); experiment: Growth inhibition assay of fungal pathogens, Bc; assay type: cell-based; conditions: 48 h, Botrtyis cinerea; growth inhibition at 48 hours vs 2% DMSO control; read-out: Concentration at 90% Inhibition Bc
Procedure: as §1, §2, §3, §4

[9] = tested on: Fusarium virguliforme (Fv); experiment: Growth inhibition assay of fungal pathogens, Fv; assay type: cell-based; conditions: 48 h, growth inhibition at 48 hours vs 2% DMSO control, read-out: Concentration at 90% Inhibition Fv
Procedure: as §1, §2, §3, §4

[10] = molecular target: human (hACC2) (Homo sapiens, UniProt O00763); experiment: In vitro ACC inhibition assay (ADP-Glo), hACC2; assay type: biochemical; conditions: 5 nM ACC2, 20 μM ATP, 20 μM acetyl-CoA
Chain of human (hACC2) (O00763 whole entry): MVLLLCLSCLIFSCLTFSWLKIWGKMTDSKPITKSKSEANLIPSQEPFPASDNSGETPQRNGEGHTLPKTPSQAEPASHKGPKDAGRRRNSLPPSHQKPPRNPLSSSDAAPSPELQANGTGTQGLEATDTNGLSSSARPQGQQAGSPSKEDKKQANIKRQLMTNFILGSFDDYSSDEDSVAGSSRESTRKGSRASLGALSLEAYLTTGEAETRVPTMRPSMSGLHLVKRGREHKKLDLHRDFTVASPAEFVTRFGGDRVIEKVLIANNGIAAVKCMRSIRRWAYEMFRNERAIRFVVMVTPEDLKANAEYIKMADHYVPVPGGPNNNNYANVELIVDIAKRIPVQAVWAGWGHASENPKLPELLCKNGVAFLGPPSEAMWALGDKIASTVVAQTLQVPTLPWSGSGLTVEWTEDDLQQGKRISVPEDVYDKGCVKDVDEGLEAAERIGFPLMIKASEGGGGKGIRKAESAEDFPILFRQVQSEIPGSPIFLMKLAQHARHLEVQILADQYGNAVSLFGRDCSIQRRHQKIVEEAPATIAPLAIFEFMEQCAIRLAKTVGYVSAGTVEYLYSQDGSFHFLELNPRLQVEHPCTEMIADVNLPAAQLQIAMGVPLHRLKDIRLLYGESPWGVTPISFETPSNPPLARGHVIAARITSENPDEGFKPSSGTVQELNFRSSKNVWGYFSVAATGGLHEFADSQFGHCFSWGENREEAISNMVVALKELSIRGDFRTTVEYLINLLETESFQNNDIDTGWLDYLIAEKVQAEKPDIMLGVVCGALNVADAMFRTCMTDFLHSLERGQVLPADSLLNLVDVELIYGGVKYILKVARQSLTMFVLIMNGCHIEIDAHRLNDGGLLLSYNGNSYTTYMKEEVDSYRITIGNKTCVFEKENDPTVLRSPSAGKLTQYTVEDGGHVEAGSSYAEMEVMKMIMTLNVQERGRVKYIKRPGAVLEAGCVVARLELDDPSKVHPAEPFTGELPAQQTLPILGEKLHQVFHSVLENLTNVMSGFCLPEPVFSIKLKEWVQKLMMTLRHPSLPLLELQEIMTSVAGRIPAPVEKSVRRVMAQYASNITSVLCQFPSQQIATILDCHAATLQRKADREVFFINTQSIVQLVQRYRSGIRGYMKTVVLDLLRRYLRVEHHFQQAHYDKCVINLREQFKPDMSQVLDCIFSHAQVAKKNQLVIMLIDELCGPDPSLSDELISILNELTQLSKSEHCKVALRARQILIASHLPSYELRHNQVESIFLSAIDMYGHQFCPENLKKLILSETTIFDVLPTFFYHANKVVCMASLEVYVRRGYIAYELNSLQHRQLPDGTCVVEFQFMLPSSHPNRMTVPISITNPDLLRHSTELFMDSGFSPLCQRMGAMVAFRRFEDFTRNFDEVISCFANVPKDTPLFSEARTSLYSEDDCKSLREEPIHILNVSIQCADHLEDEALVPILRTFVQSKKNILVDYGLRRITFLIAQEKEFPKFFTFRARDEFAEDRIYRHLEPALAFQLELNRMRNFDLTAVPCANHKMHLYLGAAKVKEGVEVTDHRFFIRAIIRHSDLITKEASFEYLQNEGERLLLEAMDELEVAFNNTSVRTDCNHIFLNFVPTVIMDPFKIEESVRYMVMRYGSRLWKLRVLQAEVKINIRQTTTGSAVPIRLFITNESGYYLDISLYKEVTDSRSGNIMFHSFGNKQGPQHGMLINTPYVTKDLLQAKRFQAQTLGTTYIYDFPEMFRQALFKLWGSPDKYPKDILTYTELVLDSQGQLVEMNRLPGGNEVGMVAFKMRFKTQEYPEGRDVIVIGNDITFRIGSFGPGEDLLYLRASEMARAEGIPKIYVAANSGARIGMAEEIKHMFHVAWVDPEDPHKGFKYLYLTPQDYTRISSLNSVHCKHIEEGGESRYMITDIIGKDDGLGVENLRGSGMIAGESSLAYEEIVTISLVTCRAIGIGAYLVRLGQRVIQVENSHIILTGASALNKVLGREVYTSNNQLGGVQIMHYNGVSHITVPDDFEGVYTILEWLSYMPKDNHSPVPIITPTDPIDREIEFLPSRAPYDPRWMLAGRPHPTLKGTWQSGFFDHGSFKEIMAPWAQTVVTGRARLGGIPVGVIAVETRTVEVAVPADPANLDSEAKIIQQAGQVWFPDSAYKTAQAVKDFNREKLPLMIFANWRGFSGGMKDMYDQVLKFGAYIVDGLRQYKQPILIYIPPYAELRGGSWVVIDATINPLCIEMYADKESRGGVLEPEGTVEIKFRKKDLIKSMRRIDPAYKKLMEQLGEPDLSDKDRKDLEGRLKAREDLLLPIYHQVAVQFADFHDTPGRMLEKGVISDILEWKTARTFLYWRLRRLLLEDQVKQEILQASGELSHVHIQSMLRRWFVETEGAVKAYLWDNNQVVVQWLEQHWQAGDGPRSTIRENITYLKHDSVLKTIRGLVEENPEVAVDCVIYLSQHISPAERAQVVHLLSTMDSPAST
Procedure: The detailed procedure is as follows. […] 10 μL ADP glo reagent was added. […] 20 μL kinase detection reagent was added.

[11] = tested on: Phytophthora capsici (Pc); experiment: Growth inhibition assay of fungal pathogens, Pc; assay type: cell-based; conditions: 48 h, growth inhibition at 48 hours vs 2% DMSO control, read-out: Concentration at 90% Inhibition Pc
Procedure: as §1, §2, §3, §4

[12] = tested on: Rhizoctonia solani (Rs); experiment: Growth inhibition assay of fungal pathogens, Rs; assay type: cell-based; conditions: 48 h
Procedure: as §1, §2, §3, §4

[13] = mycelial plugs, growth inhibition at 48 hours vs 2% DMSO control, read-out: Concentration at 90% Inhibition Rs
[14] = mycelial plugs, growth inhibition vs 2% DMSO control at 48 hours, read-out: Concentration at 90% Inhibition Rs
[15] = read-out: Concentration at 90% Inhibition Rs, Rhizoctonia solani, mycelial plugs, growth inhibition at 48 hours vs 2% DMSO control
[16] = read-out: Concentration at 90% Inhibition Rs, Rhizoctonia solani, mycelial plugs, growth inhibition vs 2% DMSO control at 48 hours

Row | SMILES | IC90 [1] [µg/mL] | IC90 [2] [µg/mL] | IC90 [3] [µg/mL] | MIC ([4]; Table 3a) [µg/mL] | MIC ([4]; Table 3b (additional results)) [µg/mL] | IC90 [5] [µg/mL] | MIC ([6]; Table 3a) [µg/mL] | MIC ([6]; Table 3b (additional results)) [µg/mL] | MIC ([7]; Table 3a) [µg/mL] | MIC ([7]; Table 3b (additional results)) [µg/mL] | IC90 [8] [µg/mL] | IC90 [9] [µg/mL] | pIC50 ([10]; Table 2a) | pIC50 ([10]; Table 2b, additional results) | IC90 [11] [µg/mL] | IC90 [12, 13] [µg/mL] | IC90 [12, 14] [µg/mL] | IC90 [12, 15] [µg/mL] | IC90 [12, 16] [µg/mL]
1 | COc1ccc(F)cc1[C@H](Cn1c(=O)n(C(C)(C)C(=O)O)c(=O)c2c(C)c(-n3nccn3)sc21)OC1CCC(=O)CC1 [Compound I-30, (R)-2-(1-(2-(5-fluoro-2-methoxyphenyl)-2-((4-oxocyclo-hexyl)oxy)ethyl)-5-methyl-2,4-dioxo-6-(2H-1,2,3-triazol-2-yl)-1,4-dihydrothieno[2,3-d]pyrimidin-3(2H)-yl)-2-methylpropanoic acid] | 2 (≈ 3.34 µM) | > 50 | > 50 | 2.1 to 4 (≈ 3.5 to 6.67 µM) | 1.01 to 2 (≈ 1.68 to 3.34 µM) | > 50 | 2.1 to 4 (≈ 3.5 to 6.67 µM) | 2.01 to 4 (≈ 3.35 to 6.67 µM) | 2.1 to 4 (≈ 3.5 to 6.67 µM) | 1.01 to 2 (≈ 1.68 to 3.34 µM) | 10 (≈ 16.7 µM) | > 50 | 8.30 to 9.00 | 8.30 to 9.00 | > 50 | 10 (≈ 16.7 µM) |  |  | 
2 | COc1ccc(F)cc1[C@H](Cn1c(=O)n([C@@H](C)C(=O)N2CCCC2)c(=O)c2c(C)c(-n3nccn3)sc21)OC(C)C [Compound I-39, 1-((R)-2-(5-fluoro-2-methoxyphenyl)-2-isopropoxyethyl)-5-methyl-3-((S)-1-oxo-1-(pyrrolidin-1-yl)propan-2-yl)-6-(2H-1,2,3-triazol-2-yl)thieno[2,3-d]pyrimidine-2,4(1H,3H)-dione] |  |  |  |  |  |  |  |  |  |  |  |  | 8.00 to 8.30 | 8.30 to 9.00 |  | 0.4 (≈ 0.684 µM) | 0.4 (≈ 0.684 µM) |  | 
3 | COc1ccc(F)cc1[C@H](Cn1c(=O)n(C(C)C(=O)N2CCCC2)c(=O)c2c(C)c(-n3nccn3)sc21)OC(C)C (stereo partly drawn) [Compound I-40, 1-((R)-2-(5-fluoro-2-methoxyphenyl)-2-isopropoxyethyl)-5-methyl-3-(1-oxo-1-(pyrrolidin-1-yl)propan-2-yl)-6-(2H-1,2,3-triazol-2-yl)thieno[2,3-d]pyrimidine-2,4(1H,3H)-dione] |  |  |  |  |  |  |  |  |  |  |  |  | 8.00 to 8.30 | 8.00 to 8.30 |  | 0.4 (≈ 0.684 µM) | 0.08 (≈ 0.137 µM) |  | 
4 | COc1ccc(F)cc1[C@H](Cn1c(=O)n(C(C)(C)C(=O)NC(C)C)c(=O)c2c(C)c(-n3nccn3)sc21)OCC(C)(C)O [Compound I-57, (R)-2-(1-(2-(5-fluoro-2-methoxyphenyl)-2-(2-hydroxy-2-methylpropoxy)ethyl)-5-methyl-2,4-dioxo-6-(2H-1,2,3-triazol-2-yl)-1,4-dihydro-thieno[2,3-d]pyrimidin-3(2H)-yl)-N-isopropyl-2-methylpropanamide] |  |  |  |  |  |  |  |  |  |  |  |  | 7.40 to 8.00 | 7.40 to 8.00 |  |  |  | 0.4 (≈ 0.649 µM) | 0.4 (≈ 0.649 µM)
5 | COc1ccc(F)cc1[C@H](Cn1c(=O)n(C(C)(C)C(=O)N2CCCC2)c(=O)c2c(C)c(-n3nccn3)sc21)OCC(C)(C)O [Compound I-58, (R)-1-(2-(5-fluoro-2-methoxyphenyl)-2-(2-hydroxy-2-methylpropoxy)ethyl)-5-methyl-3-(2-methyl-1-oxo-1-(pyrrolidin-1-yl)propan-2-yl)-6-(2H-1,2,3-triazol-2-yl)thieno[2,3-d]pyrimidine-2,4(1H,3H)-dione] |  |  |  |  |  |  |  |  |  |  |  |  | 7.40 to 8.00 | 7.40 to 8.00 |  | 0.4 (≈ 0.636 µM) | 0.4 (≈ 0.636 µM) |  | 
6 | COCCO[C@@H](Cn1c(=O)n(C(C)(C)C(=O)NC(C)C)c(=O)c2c(C)c(-n3nccn3)sc21)c1cc(F)ccc1OC [Compound I-59, (R)-2-(1-(2-(5-fluoro-2-methoxyphenyl)-2-(2-methoxy-ethoxy)ethyl)-5-methyl-2,4-dioxo-6-(2H-1,2,3-triazol-2-yl)-1,4-dihydro-thieno[2,3-d]pyrimidin-3(2H)-yl)-N-isopropyl-2-methylpropanamide] |  |  |  |  |  |  |  |  |  |  |  |  | 8.00 to 8.30 | 8.00 to 8.30 |  |  |  | 0.4 (≈ 0.664 µM) | 0.4 (≈ 0.664 µM)
7 | COCCO[C@@H](Cn1c(=O)n(C(C)(C)C(=O)N2CCCC2)c(=O)c2c(C)c(-n3nccn3)sc21)c1cc(F)ccc1OC [Compound I-60, (R)-1-(2-(5-fluoro-2-methoxyphenyl)-2-(2-methoxy-ethoxy)ethyl)-5-methyl-3-(2-methyl-1-oxo-1-(pyrrolidin-1-yl)propan-2-yl)-6-(2H-1,2,3-triazol-2-yl)thieno[2,3-d]pyrimidine-2,4(1H,3H)-dione] |  |  |  |  |  |  |  |  |  |  |  |  | 7.40 to 8.00 | 7.40 to 8.00 |  | > 50 | > 50 |  | 
8 | COCCOc1ccc(F)cc1[C@H](Cn1c(=O)n(C(C)(C)C(=O)NC(C)C)c(=O)c2c(C)c(-n3nccn3)sc21)OC1CCOCC1 [Compound I-61, (R)-2-(1-(2-(5-fluoro-2-(2-methoxyethoxy)phenyl)-2-((tetrahydro-2H-pyran-4-yl)oxy)ethyl)-5-methyl-2,4-dioxo-6-(2H-1,2,3-triazol-2-yl)-1,4-dihydrothieno[2,3-d]pyrimidin-3(2H)-yl)-N-isopropyl-2-methylpropanamide] |  |  |  |  |  |  |  |  |  |  |  |  | 8.00 to 8.30 | 8.00 to 8.30 |  | 0.08 (≈ 0.119 µM) | 0.08 (≈ 0.119 µM) |  | 
9 | COc1ccccc1[C@@H](O)Cn1c(=O)n(C(C)(C)C(=O)N2CCCC2)c(=O)c2c(C)c(-n3nccn3)sc21 [Compound I-189] | 10 (≈ 18.6 µM) | > 50 | > 50 |  | 1.01 to 2 (≈ 1.88 to 3.71 µM) | > 50 |  | 1.01 to 2 (≈ 1.88 to 3.71 µM) |  | 1.01 to 2 (≈ 1.88 to 3.71 µM) | 10 (≈ 18.6 µM) | 10 (≈ 18.6 µM) |  | 7.40 to 8.00 | > 50 | 0.08 (≈ 0.149 µM) |  |  | 
10 | COc1ccc(F)cc1[C@@H](O)Cn1c(=O)n([C@@H](C)C(=O)N2CC=CC2)c(=O)c2c(C)c(-n3nccn3)sc21 [Compound I-193] | 2 (≈ 3.7 µM) | > 50 | 10 (≈ 18.5 µM) |  | 1.01 to 2 (≈ 1.87 to 3.7 µM) | > 50 |  | 1.01 to 2 (≈ 1.87 to 3.7 µM) |  | 1.01 to 2 (≈ 1.87 to 3.7 µM) | 10 (≈ 18.5 µM) | 2 (≈ 3.7 µM) |  | 8.00 to 8.30 | > 50 | 2 (≈ 3.7 µM) |  |  | 
